Results on one compound are retold here after paper PMC3091653, “A new family of phosphoinositide phosphatases in microorganisms: identification and biochemical analysis” (BMC Genomics, 2010).

For the test, the target named is T1, LM1 (Leishmania major, UniProt Q4QBX1).
T1 construct: gene LMJF_22_0250; pET14, His6-tagged (kept), frame shift of original clone removed by mutagenesis; E. coli BL21 (DE3)
Briefly: malachite green phosphate release. Particulars: pH 6, 37°C, 100-125 μM substrate. Format: biochemical.

T1 sequence (Q4QBX1 entry or part of it): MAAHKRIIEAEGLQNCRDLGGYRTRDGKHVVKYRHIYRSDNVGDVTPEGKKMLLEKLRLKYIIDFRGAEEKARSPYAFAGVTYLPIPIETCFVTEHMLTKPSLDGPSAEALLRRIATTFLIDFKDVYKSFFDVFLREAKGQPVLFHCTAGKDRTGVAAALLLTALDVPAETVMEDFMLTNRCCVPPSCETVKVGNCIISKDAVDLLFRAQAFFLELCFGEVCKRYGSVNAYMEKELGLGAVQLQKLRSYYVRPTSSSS

Regarding `CCCCCCCC(=O)OC[C@H](COP(=O)(O)O[C@@H]1[C@H](O)[C@H](OP(=O)(O)O)[C@@H](O)[C@H](O)[C@H]1O)OC(=O)CCCCCCC` [diC8-PI(3)P], the “malachite green phosphate release” value was “Both Lmo1935 and LM1 show also activity towards mono-phosphorylated PIs”.
